Assay results as given in patent US20130079345A1, “[…] ACTIVE DISUBSTITUTED TRIAZINE DERIVATIVES” (BAYER INTELLECTUAL PROPERTY GMBH, priority 2010, published 2013).
Structures can show the parent of a compound that is named as a salt.

Experiments:
[1] = molecular target: T1, CDK9/Cyclin T1 (Homo sapiens, UniProt P50750); assay: LanthaScreen Eu Kinase Binding Assay, CDK9/Cyclin T1; conditions: tracer 236, read-out: Affinity (Kd) CDK9/Cyclin T1
T1 construct: purchased Invitrogen
Summary of the method: (§1)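 TR-FRET competition binding with Alexa Fluor 647 tracer and Eu-anti-GST antibody; e.g. CDK2/Cyclin A 15 nM with tracer 236 60 nM (working solutions). Kinase buffer: HEPES 20 mM pH 8.0, MgCl2 10 mM, DTT 1 mM, Brij-35 0.01%; 8-point 1:3 series, 1 h at room temperature; Kd from sigmoidal dose-response curves.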

[2] = test system: RNA Polymerase II Ser2 phosphorylation (cellular CDK9 activity) in HCT-116 cells; assay: RNA-Polymerase II Ser2 cellular phosphorylation assay; format: cell-based; conditions: Homo sapiens, normalized with tubulin
Method: HCT-116 cells (DSMZ, Braunschweig, Germany) were maintained in Mc Coy's cell culture medium+glutamine (PAN Biotech GmbH, Aidenbach, Germany) supplemented with 10% fetal calf serum (PAA Laboratories GmbH, Pasching, Austria) and grown at 37° C., 5% CO2. For the cellular phosphorylation assay, cells were seeded with 2×10^5 cells/well/1 ml in 24-well plates (Greiner Bio—One, Frickenhausen, Germany; catalog #662160). The compounds of general formula (I) summarized in Table 6 were diluted from a 10 mM DMSO stock solution 1:10 in a total volume of 15 μL DMSO. After overnight incubation at 37° C./5% CO2, 1.5 μL of a compound diluted in DMSO was added to each sample well. Wells with cells and 0.15% DMSO in culture medium were used as positive controls, wells without cells and 0.15% DMSO in culture medium were used as negative controls. The cells were incubated with the compounds for 72 h at 37° C./5% CO2. Before lysis, cells were washed with phosphate buffered saline. Phosphorylation of RNA Polymerase II Ser2 and tubulin levels for normalization were analyzed afterwards with the Multi-Array technology (Meso Scale Discovery, Gaithersburg, Md., USA), a combination of antibody coupled electrochemiluminescence detection and patterned arrays. Manufacturer's instructions were followed and all solutions were purchased from Meso Scale Discovery. In brief, cells were lysed by 30 min incubation in CLB1 lysis buffer (Zeptosens, Witterswil, Switzerland; 60 μL per well), and supernatants were cleared by centrifugation. For analysis of RNA Polymerase II Ser2-phosphorylation, lysates were diluted 1:50 with Meso Scale Lysis Buffer supplemented with phosphatase- and protease-inhibitors, and 25 µL of each sample was pipetted in a well of a MSD Multi-Array 96-Well Plate Sector® Imager High Bind Plate (Meso Scale Discovery; catalog #L15XB-3/L11XB-3), and incubated for 2 h at room temperature. […] Meso Scale Tris Wash Buffer supplemented with 3% w/v Meso Scale Blocker A were added per well, then plates were sealed and incubated 1 h with vigorous shaking. Plates were washed with 1× Tris Wash Buffer (10× Meso Scale Wash Buffer diluted 1:10 in destilled water), 25 μL of antibody solution was added (CTD7 3E10 antibody from Helmholtz Zentrum Munich, Germany, diluted 1:100 in Meso Scale Tris Wash Buffer supplemented with 1% w/v Meso Scale Blocker A), and plates were washed three times in 1× Tris Wash Buffer. 25 μL of MSD® SULFO-TAG™ Goat-Anti-Rat-Antibody (Meso Scale Discovery, catalog #R^32AH-1, diluted 1:125 in Tris Wash Buffer with 1% (w/v) blocker A) were added per well, plates were sealed and incubated with vigorous shaking for 1 h at room temperature. Finally, plates were washed three times with Tris Wash Buffer, 150 μl 2× Read Buffer (Meso Scale Discovery) were added per well and plates were analyzed immediately in a Sector Imager from Meso Scale Discovery. For determination of tubulin protein levels, samples were analyzed with the protocol for RNA Polymerase II Ser2-phosphorylation, with an anti-tubulin antibody (rabbit; BIODESIGN International, catalog #T59840R, diluted 1:100) and a MSD® SULFO-TAG™ […] (Meso Scale Discovery, catalog #R^32AH-1, diluted 1:125). RNA Polymerase II Ser2 phosphorylation was normalized with tubulin protein levels, and EC50 values were calculated with the software XLFit (IDBS, Guildford, UK) from 2-fold dilution series comprising 6 concentrations in duplicates.

[3] = molecular target: T2, CDK7/CyclinH/Mat1 (Homo sapiens, UniProt P50613); assay: LanthaScreen Eu Kinase Binding Assay, CDK7; conditions: tracer 236, read-out: Affinity (Kd) CDK7
T2 construct: purchased Carna Biosciences
T2 sequence (P50613 whole entry): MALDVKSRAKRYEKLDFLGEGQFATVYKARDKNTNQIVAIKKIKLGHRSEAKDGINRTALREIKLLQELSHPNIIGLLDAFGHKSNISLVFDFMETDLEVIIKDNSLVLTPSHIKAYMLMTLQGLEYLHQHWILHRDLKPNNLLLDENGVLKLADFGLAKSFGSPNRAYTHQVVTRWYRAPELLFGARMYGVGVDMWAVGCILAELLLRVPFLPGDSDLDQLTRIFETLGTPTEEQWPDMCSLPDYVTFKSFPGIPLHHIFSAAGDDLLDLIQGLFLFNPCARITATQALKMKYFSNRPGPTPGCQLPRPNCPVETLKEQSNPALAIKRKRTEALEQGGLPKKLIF
T2 sequence (P51946 whole entry partner): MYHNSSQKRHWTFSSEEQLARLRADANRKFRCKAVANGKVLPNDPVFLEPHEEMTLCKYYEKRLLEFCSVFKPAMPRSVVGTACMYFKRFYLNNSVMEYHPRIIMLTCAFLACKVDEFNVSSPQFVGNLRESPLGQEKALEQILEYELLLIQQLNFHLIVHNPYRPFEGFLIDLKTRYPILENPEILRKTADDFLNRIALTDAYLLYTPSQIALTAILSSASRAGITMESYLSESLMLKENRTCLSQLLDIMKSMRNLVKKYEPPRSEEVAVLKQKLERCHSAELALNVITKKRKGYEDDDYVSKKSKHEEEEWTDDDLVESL
T2 sequence (P51948 whole entry partner): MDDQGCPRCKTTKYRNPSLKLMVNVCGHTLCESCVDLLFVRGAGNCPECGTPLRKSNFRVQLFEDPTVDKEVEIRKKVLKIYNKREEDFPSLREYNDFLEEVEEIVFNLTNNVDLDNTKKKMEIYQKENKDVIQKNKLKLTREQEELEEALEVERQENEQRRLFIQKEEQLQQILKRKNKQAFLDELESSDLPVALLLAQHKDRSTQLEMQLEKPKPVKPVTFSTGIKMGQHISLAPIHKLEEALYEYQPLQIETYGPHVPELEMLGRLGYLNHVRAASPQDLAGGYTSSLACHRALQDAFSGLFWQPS
Summary of the method: as §1

T1 sequence (P50750 whole entry): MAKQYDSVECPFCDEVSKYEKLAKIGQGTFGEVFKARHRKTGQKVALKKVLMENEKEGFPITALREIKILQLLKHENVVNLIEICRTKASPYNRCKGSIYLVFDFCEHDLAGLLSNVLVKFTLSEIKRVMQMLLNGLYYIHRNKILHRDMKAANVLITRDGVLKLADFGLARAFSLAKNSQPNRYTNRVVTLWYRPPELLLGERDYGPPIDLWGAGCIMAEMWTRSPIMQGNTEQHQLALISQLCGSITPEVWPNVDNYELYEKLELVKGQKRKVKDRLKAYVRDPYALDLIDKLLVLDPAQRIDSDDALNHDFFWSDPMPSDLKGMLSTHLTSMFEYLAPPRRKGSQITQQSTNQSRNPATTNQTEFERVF
T1 sequence (O60563 whole entry partner): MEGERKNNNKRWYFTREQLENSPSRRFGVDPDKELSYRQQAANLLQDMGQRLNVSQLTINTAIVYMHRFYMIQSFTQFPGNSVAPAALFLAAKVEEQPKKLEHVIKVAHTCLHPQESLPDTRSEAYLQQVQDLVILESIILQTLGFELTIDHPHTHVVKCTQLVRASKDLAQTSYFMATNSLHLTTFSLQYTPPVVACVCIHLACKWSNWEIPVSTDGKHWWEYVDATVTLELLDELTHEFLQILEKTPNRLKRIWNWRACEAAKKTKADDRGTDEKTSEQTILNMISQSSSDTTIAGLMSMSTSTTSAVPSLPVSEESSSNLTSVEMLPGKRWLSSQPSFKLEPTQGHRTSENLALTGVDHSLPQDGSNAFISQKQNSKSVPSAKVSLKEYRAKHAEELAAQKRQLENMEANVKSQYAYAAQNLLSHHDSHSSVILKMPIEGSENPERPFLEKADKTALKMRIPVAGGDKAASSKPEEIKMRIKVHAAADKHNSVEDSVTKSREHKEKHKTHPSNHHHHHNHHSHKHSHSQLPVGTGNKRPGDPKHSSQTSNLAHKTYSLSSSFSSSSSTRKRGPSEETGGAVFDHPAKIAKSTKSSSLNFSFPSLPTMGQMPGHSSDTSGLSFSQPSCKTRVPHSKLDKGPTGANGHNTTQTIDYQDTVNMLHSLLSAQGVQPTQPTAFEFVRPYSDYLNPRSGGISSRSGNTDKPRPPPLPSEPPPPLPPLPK

SMILES	Kd [1] [nM]	Kd [3] [nM]	IC50 [2] [nM]
COc1ccccc1-c1ncnc(Nc2cccc(CS(N)(=O)=O)c2)n1 [B1′, 3-[(4-(2-Methoxyphenyl)-1,3,5-triazin-2-yl)amino]benzenemethanesulfonamide trifluoroacetic acid salt]	7.6		10900
COc1cc(F)ccc1-c1ncnc(Nc2cccc(CS(N)(=O)=O)c2)n1 [B2′, 1-(3-{[4-(4-fluoro-2-methoxyphenyl)-1,3,5-triazin-2-yl]amino}phenyl)methanesulfonamide hydrochloride]	5.6		
COc1cc(F)ccc1-c1ncnc(Nc2cccc(CS(N)(=O)=O)c2)n1 [B2″, 1-(3-{[4-(4-fluoro-2-methoxyphenyl)-1,3,5-triazin-2-yl]amino}phenyl)methanesulfonamide trifluoroacetic acid salt]	6.6		3640
NS(=O)(=O)Cc1cccc(Nc2ncnc(-c3ccccc3OCc3ccccc3)n2)c1 [B13′, 3-[(4-(2-Benzyloxyphenyl)-1,3,5-triazin-2-yl)amino]benzenemethanesulfonamide trifluoroacetic acid salt]	5.5		
COc1ccccc1-c1ncnc(Nc2cccc(S(N)(=O)=O)c2)n1 [C1′, 3-[(4-(2-Methoxyphenyl)-1,3,5-triazin-2-yl)amino]benzenesulfonamide trifluoroacetic acid salt]	< 5	> 10000	2870
COc1ccccc1-c1ncnc(Nc2cccc(CS(N)(=O)=O)c2)n1 [Compound B1, 3-[(4-(2-Methoxyphenyl)-1,3,5-triazin-2-yl)amino]benzenemethanesulfonamide]	5	> 10000	
COc1cc(F)ccc1-c1ncnc(Nc2cccc(CS(N)(=O)=O)c2)n1 [Compound B2, 3-[(4-(4-Fluoro-2-methoxyphenyl)-1,3,5-triazin-2-yl)amino]benzenemethanesulfonamide]	5	> 10000	
COc1ccc(F)cc1-c1ncnc(Nc2cccc(CS(N)(=O)=O)c2)n1 [Compound B3, 3-[(4-(5-Fluoro-2-methoxyphenyl)-1,3,5-triazin-2-yl)amino]benzenemethanesulfonamide]	16	> 10000	9620
COc1cccc(F)c1-c1ncnc(Nc2cccc(CS(N)(=O)=O)c2)n1 [Compound B4, 3-[(4-(6-Fluoro-2-methoxyphenyl)-1,3,5-triazin-2-yl)amino]benzenemethanesulfonamide]	54	> 10000	49800
COc1cc(Cl)ccc1-c1ncnc(Nc2cccc(CS(N)(=O)=O)c2)n1 [Compound B6, 3-[(4-(4-Chloro-2-methoxyphenyl)-1,3,5-triazin-2-yl)amino]benzenemethanesulfonamide]	11	> 10000	15300
CCOc1ccccc1-c1ncnc(Nc2cccc(CS(N)(=O)=O)c2)n1 [Compound B12, 3-[(4-(2-Ethoxyphenyl)-1,3,5-triazin-2-yl)amino]benzenemethanesulfonamide]	10	> 10000	17500
NS(=O)(=O)Cc1cccc(Nc2ncnc(-c3ccccc3OCc3ccccc3)n2)c1 [Compound B13, 3-[(4-(2-Benzyloxyphenyl)-1,3,5-triazin-2-yl)amino]benzenemethanesulfonamide]	5	> 10000	
NS(=O)(=O)Cc1cccc(Nc2ncnc(-c3ccccc3Oc3ccccc3)n2)c1 [Compound B14, 1-(3-{[4-(2-phenoxyphenyl)-1,3,5-triazin-2-yl]amino}phenyl)methanesulfonamide]	25.5	> 10000	14500
NS(=O)(=O)Cc1cccc(Nc2ncnc(-c3ccccc3OCc3ccncc3)n2)c1 [Compound B16, 3-[(4-(2-((4-Pyridinyl)methoxy)phenyl)-1,3,5-triazin-2-yl)amino]benzenemethanesulfonamide]	< 5	> 10000	11900
COc1cnccc1-c1ncnc(Nc2cccc(CS(N)(=O)=O)c2)n1 [Compound B19, 3-[(4-(3-Methoxypyridin-4-yl)-1,3,5-triazin-2-yl)amino]benzenemethanesulfonamide]	7	> 10000	15500

Further lines, with some results ahead:

Kd [1] [nM]	Kd [3] [nM]	SMILES	IC50 [2] [nM]
32.8	> 10000	COc1ccccc1-c1ncnc(Nc2cccc(CCS(N)(=O)=O)c2)n1 [Compound D1, 2-[3-((4-(2-Methoxyphenyl)-1,3,5-triazin-2-yl)amino)phenyl]ethanesulfonamide]	
9.5	> 10000	COc1cc(F)ccc1-c1ncnc(Nc2cccc(CCS(N)(=O)=O)c2)n1 [Compound D2, 2-[3-((4-(4-Fluoro-2-methoxyphenyl)-1,3,5-triazin-2-yl)amino)phenyl]ethanesulfonamide]	10800
17.8	> 30000	COc1ccccc1-c1ncnc(Nc2cccc([N+](=O)[O-])c2)n1 [Compound H1, 4-(2-Methoxyphenyl)-N-(3-nitrophenyl)-1,3,5-triazine-2-amine]	
38.5	> 30000	COc1ccccc1-c1ncnc(Nc2cccc(NS(C)(=O)=O)c2)n1 [Compound K1, N-[3-((4-(2-Methoxyphenyl)-1,3,5-triazin-2-yl)amino)phenyl]-methanesulfonamide]	
45.5	> 30000	CCCS(=O)(=O)Nc1cccc(Nc2ncnc(-c3ccccc3OC)n2)c1 [Compound L1, N-[3-((4-(2-Methoxyphenyl)-1,3,5-triazin-2-yl)amino)phenyl]-propanesulfonamide]	> 30000
126	> 30000	COc1ccccc1-c1ncnc(Nc2ccccc2)n1 [Compound P1, 4-(2-Methoxyphenyl)-N-phenyl-1,3,5-triazine-2-amine]	
